These results are taken from the METLIN SMRT retention time set (Domingo-Almenara et al. 2019).

The nature of this data set: gradient 5% acetonitrile 3 min, to 50% in 2 min, to 85% in 15 min, held 3 min, 100 µL/min. The following applies: column: Zorbax Extend-C18 2.1 x 50 mm; eluents: water / acetonitrile, 0.1% formic acid. The gist of the method: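 In both positive and negative ionization mode, a quadrupole time-of-flight mass spectrometer coupled to HPLC analyzed pure standards run in mixtures of ~100 molecules. The Zorbax Extend-C18 column (2.1 × 50 mm, 1.8 μm) was operated at 100 μL/min with water and acetonitrile, each containing 0.1% formic acid. The dead volume was 40 μL and the dwell volume 900 μL. Retention time came from adduct peaks that were computationally picked and individually inspected by hand.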
`COCC1(O)CCOC2(CCN(Cc3ccc(C#N)cc3)CC2)C1` (centres undefined) registered an RP-LC retention time of 578 s. Then `COC(=O)COC(=O)c1cn(-c2cccc(Cl)c2)c(=O)c2ccccc12`, with 1010 s.

`CCOC(=O)N1CCN(C(=O)CSc2nnc(COc3ccc(Cl)cc3)o2)CC1` yielded an RP-LC retention time of 799 s. On to `Cc1cc(=O)n(CC(=O)NC(C)CCc2ccccc2)c(N2CCc3ccccc3C2)n1` (centres undefined), for which the RP-LC retention time amounted to 872 s. Then `Cc1nc2cc(N3CC(C(=O)Nc4ccc(F)c(C)c4)CC3=O)ccc2o1` (centres undefined), with 753 s; and `c1ccc(-c2ccc3c(c2)NCCN3)cc1`, with 650 s. Then `COc1ccc(C[C@H](C)NC[C@@H](O)c2ccc(O)c(NC=O)c2)cc1`, with 663 s; and `Cc1cccc(-c2nc(Cn3nnc(-c4nc(-c5cccs5)no4)c3C)c(C)o2)c1`, with 1220 s. With `COC(=O)c1ccc2c(=O)n(-c3cccc(Cl)c3)c(N3CCOCC3)nc2c1`, the RP-LC retention time came to 998 s. Molecule `Cc1ccc(CCNC(=O)CN2C(=O)CSc3cccn3-c3ccccc32)cc1` came in with an RP-LC retention time of 965 s. Then `O=c1n(Cc2ccc3c(c2)OCO3)nc2c(S(=O)(=O)N3CCCC3)cccn12`, with 783 s; and `Cn1cc(-c2cc3n(n2)CCC(=O)N3CC(=O)NCCC2=CCCCC2)c2ccccc21`, with 891 s. With `Cc1ccccc1Nc1c(-c2cccc(O)c2)nc2cccc(C)n12` the figure was 678 s. Then `CCOc1ccc(-c2nnc3ccc(SC(C(C)=O)C(=O)N(C)C)nn23)cc1` (centres undefined), with 665 s; and `O=C(c1cnn2cc(Br)cnc12)N1CCCC1c1ccccc1F` (centres undefined), with 841 s. In the case of `Cc1ccc(-c2noc(-c3ccc(N4CCN(c5cc(C)ccc5C)CC4)nc3)n2)cc1`, the RP-LC retention time was determined as 749 s. For `Cc1cccc(Cl)c1NC(=O)Cn1ncc2c(N3CCN(c4ccccn4)CC3)ncnc21`, the RP-LC retention time amounted to 593 s. Consider `Cn1cc(CN2CCN(C(=O)C3CCN(S(=O)(=O)N4CCCC4)CC3)CC2)c2ccccc21`, for which the RP-LC retention time stood at 655 s. Then `O=C(NCc1cc(F)cc(F)c1)c1c(O)c2cccnc2n(-c2ccc(F)cc2)c1=O`, with 1180 s; and `COc1ccc(NS(=O)(=O)c2cc3c(s2)CCN(C(=O)C2CCC2)C3)cc1Cl`, with 893 s; and `COc1ccc(N2C=C(C(=O)N3CCCC3)S(=O)(=O)c3ccccc32)cc1Cl`, with 808 s.

The molecule `CCCCOc1ccc(-c2cc3c4nnc(CCC(=O)NCCc5cccs5)n4ccn3n2)cc1` yielded an RP-LC retention time of 943 s. With `O=c1c(S(=O)(=O)N2CCCC2)cccn1Cc1cccc(Cl)c1` the figure was 902 s; with `Cc1ccc(NC(=O)N2CCC(n3cnc4ccc(Cl)cc4c3=O)CC2)cc1C`, 913 s.

In the case of `O=C(NCc1ccc(F)cc1)C1CCN(c2cncnc2N2CCCC2)CC1`, the RP-LC retention time came out at 659 s. Take `CN1C(=O)COc2ccc(-c3csc(NC(=O)Cc4ccccc4)n3)cc21`: the RP-LC retention time turned out to be 898 s. `CCCN1C(=O)COc2cc(-c3noc(C(=O)NCC4CCCN4CC)n3)ccc21` (centres undefined) yielded an RP-LC retention time of 645 s.

For the molecule `Cc1nn(-c2ccc(F)cc2)c(C)c1S(=O)(=O)N1CCC(C(=O)N2CCCC2)CC1`, the RP-LC retention time is 790 s. Then `CC(C)NC(=O)c1ccc(OCC2CCCN(C(=O)c3ccccc3F)C2)cc1` (centres undefined), with 830 s; and `CCOc1ccc(NC(=O)C2CCN(S(C)(=O)=O)c3cc(Cl)ccc3O2)cc1` (centres undefined), with 877 s; and `CCc1ccc2[nH]c3c(c(=O)c2c1)CN(CC(=O)NCc1ccc(SC)cc1)CC3`, with 889 s.

`CCOC(=O)c1cn(CC)c2cc(N3CCCC3)c(F)cc2c1=O` showed an RP-LC retention time of 822 s. As for `CCN1CCCn2cc(S(=O)(=O)Nc3ccc(Cl)cc3)cc2C1=O`, the RP-LC retention time was 765 s. Then `CC1CCCN(c2ccn3c(=O)n(CC(=O)Nc4ccc(F)c(Cl)c4)nc3n2)C1` (centres undefined), with 834 s; and `Cc1nc(Cn2cccc2C(=O)Nc2cccc(Cl)c2)no1`, with 911 s. `COC(=O)c1cc2c(=O)n(CCc3c[nH]c4ccc(OC)cc34)ccc2nc1C` returned an RP-LC retention time of 774 s. With `COCc1nncn1C1CCN(S(=O)(=O)c2ccc(Cl)c(C)c2)CC1` the figure was 765 s; with `Cc1ccn2c(Nc3ccc4c(c3)OCO4)c(-c3cc(Br)ccc3F)nc2c1`, 747 s; with `Cc1cccc2nnc(N3CCN(C(=O)c4ccncc4)CC3)n12`, 551 s. With `Cc1cc(C)cc(OCC(=O)N2CCCCC2CCN2CCOCC2)c1` (centres undefined) the figure was 668 s; with `CCn1ccc2c(cc(C(=O)Nc3ccc(OC)cc3)n2C)c1=O`, 706 s; with `CCC(C)NC(=O)NCCc1nc2cccnc2n1Cc1ccccc1` (centres undefined), 685 s.

Molecule `Cc1ccccc1NC(=O)N1CCC(CCNC(=O)C2(c3ccccc3)CC2)CC1` registered an RP-LC retention time of 873 s. As for `COc1ccc(CCNC(=O)CN2C(=O)NC(c3ccc(Cl)cc3)C3=C2COC3=O)cc1OC` (centres undefined), the RP-LC retention time was 750 s. With `CCOCCCNC(=O)NC1CCN(c2nc3ccccc3n(C)c2=O)CC1` the figure was 690 s.

The molecule `CCCN1CCN(C(=O)C2CCCN(c3nnc(C)c4c(C)n(-c5ccccc5)nc34)C2)CC1` (centres undefined) had an RP-LC retention time of 582 s.

`Cc1ccccc1CN1C(=O)N(c2ccc(F)cc2)c2ncccc2S1(=O)=O` displayed an RP-LC retention time of 1100 s. With `Cc1cc(=O)n(CC(=O)NCc2ccccc2Br)c(N2CCc3ccccc3C2)n1` the figure was 818 s; with `O=C(Nc1nnc(-c2ccc(C(F)(F)F)cc2)o1)c1cc2ccccc2o1`, 885 s; with `Cc1ccc(-c2noc(Cn3c(=O)n(Cc4ccc5c(c4)OCO5)c(=O)c4sccc43)n2)cc1C`, 1180 s. As to `COc1ccc(-c2ncccc2CNS(=O)(=O)c2cccc(OC)c2)cc1`, the RP-LC retention time is 670 s. With `COc1ccc(NS(=O)(=O)c2cc(-c3cc(C(F)(F)F)on3)sc2C)c(OC)c1` the figure was 1130 s. Then `Cc1ccc(S(=O)(=O)c2cnc(N3CCC4(CC3)OCCO4)nc2N)cc1C`, with 900 s. With `CC1CCN(c2cnn(CC(=O)Nc3ccc4c(c3)CCC4)c(=O)c2Cl)CC1` the figure was 1030 s; with `Clc1ccc(-c2noc(Cc3nnc(-c4ccccc4)o3)n2)cc1`, 1050 s.

As to `C=CCNC(=O)c1sc(Nc2ccc(Cl)cn2)nc1C`, the RP-LC retention time was 746 s.

`CCCNC(=O)c1n[nH]c2c1CC(C)CC2` (centres undefined) returned an RP-LC retention time of 740 s. Then `COCCOC1CN(C2CCN(C(=O)c3ccc(C)s3)CC2)C12CCCCC2` (centres undefined), with 656 s; and `CC(C)(C)NC(=O)N1CCCN(S(C)(=O)=O)CC1`, with 614 s. With `Cc1ccc2nc(-c3ccccc3O)c(Nc3ccc4c(c3)OCCO4)n2c1` the figure was 684 s; with `Oc1cccc(-c2nc3cnccn3c2Nc2ccc(F)cc2)c1`, 728 s; with `O=C(Cn1c(=O)c2cc(C3CC3)nn2c2ncccc21)N1CCc2ccccc21`, 808 s. With `CC(C)C(=O)N1CCc2cc(-c3ccc(C(=O)N4CCN(C(=O)c5ccco5)CC4)cc3)ccc21` the figure was 830 s; with `O=C(NCc1ccccc1Cl)C1CCN(c2cnc3nccnc3c2)CC1`, 769 s; with `CCN(CC)CCNC(=O)c1cc2cc(S(=O)(=O)N(C)C)ccc2n1CC`, 633 s. With `CCC1Oc2ccc(S(=O)(=O)N3CCC(C(=O)NCc4ccccc4C)CC3)cc2NC1=O` (centres undefined), the RP-LC retention time came to 872 s. For the molecule `Cc1ccc(C)c(NC(=O)N2CCC(OC3CCN(S(C)(=O)=O)CC3)CC2)c1`, the RP-LC retention time was 771 s. Take `COc1ccc(CNC(=O)Cc2nnc(-c3ccccn3)o2)cc1OC`: the RP-LC retention time came to 622 s.

Take `CC1=CC2(C)NC(=O)C(C)C12` (centres undefined): the RP-LC retention time was 710 s. Then `O=C(Cn1c(C(F)(F)F)nc2ccccc21)NCc1ccc2c(c1)OCCCO2`, with 804 s; and `COc1ccc(CN2C[C@@H]3C(=O)N(CCc4ccccc4)C(=O)[C@@H]3C2)c(OC)c1`, with 728 s; and `CC(=O)N1CCc2cc(N3CC(C(=O)Nc4cccc(C)c4)CC3=O)ccc21` (centres undefined), with 712 s. With `CC(C)n1c(=O)c(NCc2ccccc2C(F)(F)F)nc2ccncc21` the figure was 714 s; with `COCCCNC(=O)C1Cn2cccc2C(=O)N1CC(C)C` (centres undefined), 646 s; with `CCN1N=C(C(=O)N2CCC(C)CC2)S(=O)(=O)c2ccccc21`, 844 s. For the molecule `COC(=O)c1c(NCc2ccccc2C(F)(F)F)c2cccc(Cl)c2[nH]c1=O`, the RP-LC retention time amounted to 879 s. With `Cc1ccc2oc(-c3noc(C(=O)NCCN4CCC(C)CC4)n3)c(C)c2c1` the figure was 759 s. Then `COc1cc2nc(C(=O)N3CCCCC3)cc(Nc3cccc(SC)c3)c2cc1OC`, with 723 s; and `Cc1cc(C(=O)NOCCO)c(Nc2ccc(I)cc2F)n(C)c1=O`, with 718 s.
